# Activity calls are given as the source filed them. The rule behind the calls is not given here.
# Tested on: Escherichia coli
# Assay: Antibacterial activity against Escherichia coli ATCC 25922 assessed as inhibition of bacterial growth incubated for 18 hrs by broth microdilution method
# Type: functional
row,SMILES,Activity
1,O=C(Nc1cccc(Cl)c1)NC1CCN(CCC(Oc2ccccc2F)c2ccccc2)CC1 (racemic),inactive
2,COc1ccccc1OC(CCN1CCC(NC(=O)Nc2cccc(Cl)c2)CC1)c1ccccc1 (stereo unspecified),inactive
3,O=C(Nc1ccccc1)NC1CCN(CCC(Oc2ccc(C(F)(F)F)cc2)c2ccccc2)CC1 (racemic),inactive
4,O=C(Nc1cccc(Cl)c1)N1CCN(CCC(Oc2ccc(C(F)(F)F)cc2)c2ccccc2)CC1 (racemic),inactive

# Tested on: Staphylococcus epidermidis
# Assay: Antibacterial activity against linezolid-resistant Staphylococcus epidermidis NIL 4399/19 assessed as inhibition of bacterial growth incubated for 18 hrs by broth microdilution method
# Type: functional
row,SMILES,MIC
1,O=C(Nc1cccc(Cl)c1)NC1CCN(CCC(Oc2ccccc2F)c2ccccc2)CC1 (racemic),6.25 mg/L
2,COc1ccccc1OC(CCN1CCC(NC(=O)Nc2cccc(Cl)c2)CC1)c1ccccc1 (stereo unspecified),> 12.5 mg/L
3,O=C(Nc1ccccc1)NC1CCN(CCC(Oc2ccc(C(F)(F)F)cc2)c2ccccc2)CC1 (racemic),> 12.5 mg/L
4,O=C(Nc1cccc(Cl)c1)N1CCN(CCC(Oc2ccc(C(F)(F)F)cc2)c2ccccc2)CC1 (racemic),> 12.5 mg/L
5,O=C(O)c1cn(C2CC2)c2cc(N3CCNCC3)c(F)cc2c1=O [CIPROFLOXACIN],> 12.5 mg/L

# Tested on: Enterococcus faecium
# Assay: Antibacterial activity against vancomycin-resistant Enterococcus faecium assessed as inhibition of bacterial growth incubated for 18 hrs by broth microdilution method
# Type: functional
row,SMILES,MIC
1,O=C(O)c1cn(C2CC2)c2cc(N3CCNCC3)c(F)cc2c1=O [CIPROFLOXACIN],0.78 mg/L

# Tested on: Staphylococcus epidermidis
# Assay: Antibacterial activity against methicillin-susceptible Staphylococcus epidermidis ATCC 12228 assessed as inhibition of bacterial growth incubated for 18 hrs by broth microdilution method
# Type: functional
row,SMILES,MIC
1,O=C(Nc1cccc(Cl)c1)NC1CCN(CCC(Oc2ccccc2F)c2ccccc2)CC1 (racemic),12.5 mg/L
2,COc1ccccc1OC(CCN1CCC(NC(=O)Nc2cccc(Cl)c2)CC1)c1ccccc1 (stereo unspecified),> 12.5 mg/L
3,O=C(Nc1ccccc1)NC1CCN(CCC(Oc2ccc(C(F)(F)F)cc2)c2ccccc2)CC1 (racemic),> 12.5 mg/L
4,O=C(Nc1cccc(Cl)c1)N1CCN(CCC(Oc2ccc(C(F)(F)F)cc2)c2ccccc2)CC1 (racemic),> 12.5 mg/L
5,O=C(O)c1cn(C2CC2)c2cc(N3CCNCC3)c(F)cc2c1=O [CIPROFLOXACIN],0.78 mg/L

# Tested on: Staphylococcus aureus
# Assay: Antibacterial activity against vancomycin-intermediate Staphylococcus aureus ATCC 700699 assessed as inhibition of bacterial growth incubated for 18 hrs by broth microdilution method
# Type: functional
row,SMILES,MIC
1,O=C(Nc1cccc(Cl)c1)NC1CCN(CCC(Oc2ccccc2F)c2ccccc2)CC1 (racemic),12.5 mg/L
2,COc1ccccc1OC(CCN1CCC(NC(=O)Nc2cccc(Cl)c2)CC1)c1ccccc1 (stereo unspecified),> 12.5 mg/L
3,O=C(Nc1ccccc1)NC1CCN(CCC(Oc2ccc(C(F)(F)F)cc2)c2ccccc2)CC1 (racemic),> 12.5 mg/L
4,O=C(Nc1cccc(Cl)c1)N1CCN(CCC(Oc2ccc(C(F)(F)F)cc2)c2ccccc2)CC1 (racemic),> 12.5 mg/L

# Tested on: Staphylococcus epidermidis
# Assay: Antibacterial activity against biofilm producer Staphylococcus epidermidis ATCC 35984 assessed as inhibition of bacterial growth incubated for 18 hrs by broth microdilution method
# Type: functional
row,SMILES,MIC
1,O=C(Nc1cccc(Cl)c1)NC1CCN(CCC(Oc2ccccc2F)c2ccccc2)CC1 (racemic),12.5 mg/L
2,COc1ccccc1OC(CCN1CCC(NC(=O)Nc2cccc(Cl)c2)CC1)c1ccccc1 (stereo unspecified),12.5 mg/L
3,O=C(Nc1ccccc1)NC1CCN(CCC(Oc2ccc(C(F)(F)F)cc2)c2ccccc2)CC1 (racemic),12.5 mg/L
4,O=C(Nc1cccc(Cl)c1)N1CCN(CCC(Oc2ccc(C(F)(F)F)cc2)c2ccccc2)CC1 (racemic),> 12.5 mg/L
5,O=C(O)c1cn(C2CC2)c2cc(N3CCNCC3)c(F)cc2c1=O [CIPROFLOXACIN],0.78 mg/L

# Tested on: Staphylococcus aureus
# Assay: Antibacterial activity against methicillin-resistant Staphylococcus aureus clinical strain 19449 assessed as inhibition of bacterial growth incubated for 18 hrs by broth microdilution method
# Type: functional
row,SMILES,MIC
1,O=C(Nc1cccc(Cl)c1)NC1CCN(CCC(Oc2ccccc2F)c2ccccc2)CC1 (racemic),12.5 mg/L
2,COc1ccccc1OC(CCN1CCC(NC(=O)Nc2cccc(Cl)c2)CC1)c1ccccc1 (stereo unspecified),> 12.5 mg/L
3,O=C(Nc1ccccc1)NC1CCN(CCC(Oc2ccc(C(F)(F)F)cc2)c2ccccc2)CC1 (racemic),> 12.5 mg/L
4,O=C(Nc1cccc(Cl)c1)N1CCN(CCC(Oc2ccc(C(F)(F)F)cc2)c2ccccc2)CC1 (racemic),> 12.5 mg/L

# Tested on: Enterococcus faecalis
# Assay: Antibacterial activity against Enterococcus faecalis ATCC 29212 assessed as inhibition of bacterial growth incubated for 18 hrs by broth microdilution method
# Type: functional
row,SMILES,MIC
1,O=C(O)c1cn(C2CC2)c2cc(N3CCNCC3)c(F)cc2c1=O [CIPROFLOXACIN],0.78 mg/L

# Tested on: Klebsiella pneumoniae
# Assay: Antibacterial activity against Klebsiella pneumoniae ATCC 700603 assessed as inhibition of bacterial growth incubated for 18 hrs by broth microdilution method
# Type: functional
row,SMILES,Activity
1,O=C(Nc1cccc(Cl)c1)NC1CCN(CCC(Oc2ccccc2F)c2ccccc2)CC1 (racemic),inactive
2,COc1ccccc1OC(CCN1CCC(NC(=O)Nc2cccc(Cl)c2)CC1)c1ccccc1 (stereo unspecified),inactive
3,O=C(Nc1ccccc1)NC1CCN(CCC(Oc2ccc(C(F)(F)F)cc2)c2ccccc2)CC1 (racemic),inactive
4,O=C(Nc1cccc(Cl)c1)N1CCN(CCC(Oc2ccc(C(F)(F)F)cc2)c2ccccc2)CC1 (racemic),inactive

# Tested on: Staphylococcus aureus
# Assay: Antibacterial activity against methicillin-susceptible Staphylococcus aureus ATCC 25923 assessed as inhibition of bacterial growth incubated for 18 hrs by broth microdilution method
# Type: functional
row,SMILES,MIC
1,O=C(Nc1cccc(Cl)c1)NC1CCN(CCC(Oc2ccccc2F)c2ccccc2)CC1 (racemic),12.5 mg/L
2,COc1ccccc1OC(CCN1CCC(NC(=O)Nc2cccc(Cl)c2)CC1)c1ccccc1 (stereo unspecified),> 12.5 mg/L
3,O=C(Nc1ccccc1)NC1CCN(CCC(Oc2ccc(C(F)(F)F)cc2)c2ccccc2)CC1 (racemic),> 12.5 mg/L
4,O=C(Nc1cccc(Cl)c1)N1CCN(CCC(Oc2ccc(C(F)(F)F)cc2)c2ccccc2)CC1 (racemic),> 12.5 mg/L
5,O=C(O)c1cn(C2CC2)c2cc(N3CCNCC3)c(F)cc2c1=O [CIPROFLOXACIN],0.78 mg/L

# Tested on: Streptococcus pneumoniae
# Assay: Antibacterial activity against Streptococcus pneumoniae ATCC 49619 assessed as inhibition of bacterial growth incubated for 18 hrs by broth microdilution method
# Type: functional
row,SMILES,MIC
1,O=C(Nc1cccc(Cl)c1)NC1CCN(CCC(Oc2ccccc2F)c2ccccc2)CC1 (racemic),12.5 mg/L
2,COc1ccccc1OC(CCN1CCC(NC(=O)Nc2cccc(Cl)c2)CC1)c1ccccc1 (stereo unspecified),> 12.5 mg/L
3,O=C(Nc1ccccc1)NC1CCN(CCC(Oc2ccc(C(F)(F)F)cc2)c2ccccc2)CC1 (racemic),> 12.5 mg/L
4,O=C(Nc1cccc(Cl)c1)N1CCN(CCC(Oc2ccc(C(F)(F)F)cc2)c2ccccc2)CC1 (racemic),> 12.5 mg/L

# Tested on: Pseudomonas aeruginosa
# Assay: Antibacterial activity against Pseudomonas aeruginosa ATCC 27853 assessed as inhibition of bacterial growth incubated for 18 hrs by broth microdilution method
# Type: functional
row,SMILES,Activity
1,O=C(Nc1cccc(Cl)c1)NC1CCN(CCC(Oc2ccccc2F)c2ccccc2)CC1 (racemic),inactive
2,COc1ccccc1OC(CCN1CCC(NC(=O)Nc2cccc(Cl)c2)CC1)c1ccccc1 (stereo unspecified),inactive
3,O=C(Nc1ccccc1)NC1CCN(CCC(Oc2ccc(C(F)(F)F)cc2)c2ccccc2)CC1 (racemic),inactive
4,O=C(Nc1cccc(Cl)c1)N1CCN(CCC(Oc2ccc(C(F)(F)F)cc2)c2ccccc2)CC1 (racemic),inactive

# Tested on: Staphylococcus aureus
# Assay: Antibacterial activity against biofilm producer Staphylococcus aureus RN450 assessed as inhibition of bacterial growth incubated for 18 hrs by broth microdilution method
# Type: functional
row,SMILES,MIC
1,O=C(Nc1cccc(Cl)c1)NC1CCN(CCC(Oc2ccccc2F)c2ccccc2)CC1 (racemic),6.25 mg/L
2,COc1ccccc1OC(CCN1CCC(NC(=O)Nc2cccc(Cl)c2)CC1)c1ccccc1 (stereo unspecified),> 12.5 mg/L
3,O=C(Nc1ccccc1)NC1CCN(CCC(Oc2ccc(C(F)(F)F)cc2)c2ccccc2)CC1 (racemic),> 12.5 mg/L
4,O=C(Nc1cccc(Cl)c1)N1CCN(CCC(Oc2ccc(C(F)(F)F)cc2)c2ccccc2)CC1 (racemic),> 12.5 mg/L
5,O=C(O)c1cn(C2CC2)c2cc(N3CCNCC3)c(F)cc2c1=O [CIPROFLOXACIN],0.78 mg/L

# Source: ChEMBL document CHEMBL5346933, “Design and synthesis of novel arylurea derivatives of aryloxy(1-phenylpropyl) alicyclic diamines with antimicrobial activity against multidrug-resistant Gram-positive bacteria” (Eur J Med Chem, 2023)
